Results reported in PubChem BioAssay AID1902 (Broad Institute, 2009).
Activity calls are given as the source filed them.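 Rule for the calls: active = EC50 no more than a set limit of log units above the highest dose; inactive = the rest.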

target: S. pyogenes SKKanGAS, kanamycin survival, BacTiterGlo, 6 h; assay: SKKanGAS survival reduction under kanamycin, dose response, streptokinase promoter inhibitor project, SKKanGAS strain, luminescence, dose confirmation (AID 1902);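 note: lower survival reflects blocked streptokinase promoter driving kanamycin resistance gene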

| Structure (SMILES) | EC50 |
| --- | --- |
| CCOC(=O)N1CCN(C(=O)c2ccc3c(c2)NC(=O)/C(=C/c2ccccc2)S3)CC1 | 1.59 µM |
| CC12CCC(C(=O)NNC(=O)c3ccccc3)(OC1=O)C2(C)C (stereo not drawn) | > 15 µM (inactive) |
| O=C(O)CCSc1ccc([N+](=O)[O-])cc1[N+](=O)[O-] | > 15 µM (inactive) |
| O=C(NC(=S)NNC(=O)c1ccccc1O)c1ccc(F)cc1 | 1.29 µM |
| CCN1C(=O)C(CC(=O)Nc2ccc(Br)cc2)N(CCCc2ccccc2)C1=S (stereo not drawn) | 2.9 µM |
| NC(N)=N/N=C/c1ccc(N(c2ccccc2)c2ccccc2)cc1 | 2.06 µM |
| C/C(=N\Nc1nc2ccccc2[nH]1)c1ccc2c(c1)OCO2 | 4.28 µM |
| N=C(N)c1ccc(OCCCCCOc2ccc(C(=N)N)cc2)cc1 | < 0.06 µM |
| CC(C)=CCc1c(O)c(CC=C(C)C)c2occ(-c3ccc(O)cc3)c(=O)c2c1O | 1.86 µM |
| Cc1[nH]c2ccccc2c1/C=N/Nc1nc2ccccc2[nH]1 | 4.87 µM |
| C/C(=N\N=C(/N)SC1CC(=O)N(c2ccc(Br)cc2)C1=O)c1cccs1 (stereo not drawn) | 5.03 µM |
| Cc1ccc(C)c(-c2cc(C(=O)Nc3sc(C)c(C)c3C(N)=O)c3ccccc3n2)c1 | 3.55 µM |
| CC(NC(=O)Nc1nnc(C(F)(F)F)s1)(C(F)(F)F)C(F)(F)F | 2.97 µM |
| Cc1[nH]c(-c2ccc(F)cc2)cc1C(=O)N1CCN(c2cccc(Cl)c2)CC1 | 4.92 µM |
| CCCCN(CCCC)c1nc(-c2ccncc2)nc2ccccc12 | 4.24 µM |
| CCc1ccc(-c2ccc3nnc(SCC(N)=O)n3n2)cc1 | 1.66 µM |
| S=C1NC[C@H](CC2CCCCC2)N1CC1CCCCC1 | 7.69 µM |
| COc1cc(C(=O)NNC(=S)NC(=O)c2ccc3c(c2)OCO3)cc(OC)c1OC | 1.63 µM |
| CC(C)=CCCC1(C)C=Cc2c(c(C)cc3c2[nH]c2cc(O)ccc23)O1 (stereo not drawn) | 2.65 µM |
| CCN(CC)S(=O)(=O)c1cc(OC)ccc1N=Nc1ccc(O)c2ncccc12 | 1.92 µM |
| CC(C)(C)Nc1nc(-c2ccccn2)nc2ccccc12 | 0.215 µM |
| N/C(=N\N=C/c1ccc(Br)cc1)N/N=C\c1ccc(Br)cc1 | 3.8 µM |

| Structure (SMILES) | EC50 |
| --- | --- |
| Oc1c(C(c2ccccn2)N2CCCCC2)cc(Cl)c2cccnc12 (stereo not drawn) | 8.88 µM |
| O=[N+]([O-])c1cc(Cl)cc(/C=N/Nc2nc3ccccc3s2)c1O | 1.54 µM |
| O=C1c2ccccc2C(=O)c2[nH]c(=O)[nH]c21 | 9.21 µM |
| Cc1cccc(NC(=O)C(=O)NNC(=O)c2ccc(C(C)(C)C)cc2)c1 | 5.41 µM |
| O=C(Cn1nc2ccccc2n1)N/N=C/c1cc([N+](=O)[O-])ccc1O | 0.73 µM |
| FC(F)(F)c1cccc(CNC2c3ccccc3-c3ccccc32)c1 | 6.57 µM |
| C/C(=N/NC(=O)CNC(=O)c1cccnc1)c1cccc([N+](=O)[O-])c1 | > 15 µM (inactive) |
| CCN1/C(=C/C=C/c2sc3ccccc3[n+]2CC)Sc2ccccc21 | 2.15 µM |
| CCCOc1ccc(C(=O)NNC(=S)NC(=O)c2ccccc2)cc1 | 0.217 µM |
| CC(C)(C)c1cc(C(=O)NNc2cc(C(F)(F)F)ccc2Cl)n(Cc2ccccc2)n1 | 4.92 µM |
| Cc1ccc(OCC(=O)NNC(=S)NC(=O)c2ccc(Br)o2)c(C)c1 | < 0.06 µM |
| CN1Cc2cc(C(=O)c3cc(Cl)cc(CSc4ncccn4)c3O)cnc2NC1=O | 9.39 µM |
| O=C(/C=C/c1ccc(Br)cc1)NC(=S)NNC(=O)c1ccco1 | 0.391 µM |
| CCC/C=C(\CCC)C(NS(=O)(=O)c1ccc(C(F)(F)F)cc1)c1ccccc1 (stereo not drawn) | 3.48 µM |
| CCc1nc(SCC(=O)N2c3ccccc3CC2C)c2c(C)c(C)sc2n1 (stereo not drawn) | 8.61 µM |
| Cc1cc2oc(=O)cc(CN(C)Cc3ccccc3Cl)c2cc1C | 4.2 µM |
| CCCCSc1nc(C)cc(SCC(=O)N/N=C/c2cccc(OC)c2O)n1 | 2.14 µM |
| CCn1nc(C)cc1-c1nnc(Sc2ncc([N+](=O)[O-])s2)n1C | 6.51 µM |
| O=C1c2ccccc2C(=O)c2c1oc(C(F)(F)F)c2C(=O)c1ccccc1 | 1.82 µM |
| Nc1nc(-c2ccccn2)nc(N)c1Cc1ccccc1F | 15.3 µM |
| Cc1[nH]n(-c2ccccc2)c(=O)c1N=Nc1c(O)cc(S(=O)(=O)N(C)C)c2ccccc12 | 1.1 µM |
| CCOc1ccc(N(C)c2ccc(/C=C3/SC(=S)NC3=O)cc2)cc1 | 4.3 µM |

| Structure (SMILES) | EC50 |
| --- | --- |
| COc1ccc(-c2csc(NC(=S)NC(=O)c3cccs3)n2)cc1OC | 13.9 µM |
| Cc1cccc(C(=O)Nc2scc(-c3ccc(Br)cc3)c2C(=O)O)c1 | 1.89 µM |
| COCC1CCN(C(=O)CCc2nnc(C3(c4ccc(Cl)cc4)CCC3)o2)C1 (stereo not drawn) | > 15 µM (inactive) |
| CCC1CCCCN1S(=O)(=O)c1ccc(C(=O)Nc2nnc(C3CC3)o2)cc1 (stereo not drawn) | 2.23 µM |
| Cc1ccsc1C1C=C(c2cccc(Br)c2)Nc2ncnn21 (stereo not drawn) | 14.2 µM |
| Oc1ccc(/C=N/n2c3ccccc3c3ccccc32)cc1 | 5.79 µM |
| CC(=O)Oc1c(-c2ccc(Br)o2)oc2ccccc2c1=O | 3.34 µM |
| Cn1c(=O)c2c(nc(SCc3ccccc3)n2Cc2ccc(Cl)cc2)n(C)c1=O | 2.3 µM |
| Nc1c(C(=O)OCc2ccccc2)c2nc3ccccc3nc2n1Cc1cccs1 | 5.04 µM |
| S=c1[nH]nc(C2CCCCC2)n1/N=C/c1cccc(Cl)c1Cl | 5.59 µM |
| O=C(CSc1nnc(NC(=O)c2cccc(Cl)c2)s1)NCC1CCCO1 (stereo not drawn) | > 15 µM (inactive) |
| CC(C)/C(=N/Nc1ccccc1[N+](=O)[O-])c1ccccc1 | 6.51 µM |
| CCCc1cc(NCc2ccccn2)n2nc(C)c(-c3ccccc3)c2n1 | 6.4 µM |
| Cc1ccsc1C(=O)OCC(=O)c1cc2ccccc2o1 | > 15 µM (inactive) |
| Cn1c2ccccc2c(=O)c2c(=O)n(-c3ccc(F)cc3)c(-c3cccs3)nc21 | 4.76 µM |
| CCCn1c(NC(=O)c2ccccc2Br)nc2ccccc21 | 5.66 µM |
| COc1ccc(C(=O)N2CCc3c([nH]c4ccccc34)C2C(F)(F)F)cc1 (stereo not drawn) | > 15 µM (inactive) |
| C=C(C)C1Cc2c(C)nn(-c3nc(C)cc(C)n3)c2C1 (stereo not drawn) | 0.694 µM |
| O=C(N/N=C/c1c(O)n(C2CCCCC2)c(=S)[nH]c1=O)c1ccccc1O | 0.601 µM |
| CN(C)c1nc(N/N=C/c2ccccc2O)nc(Nc2ccc(F)cc2)n1 | 3.79 µM |
| Cc1ccc(-n2c(-c3ccc(Br)cc3)c[n+]3c2CCc2ccc4cccnc4c2-3)cc1 | 3.6 µM |
| O=c1[nH]c(NNC(=S)NC2CCCCC2)nc2c1C1(CCCC1)Cc1ccccc1-2 | 1.35 µM |

| Structure (SMILES) | EC50 |
| --- | --- |
| CCN(CC)c1nc(C(F)(F)F)nc2c1nnn2Cc1ccccc1 | 3.62 µM |
| CC1CCCCN1S(=O)(=O)c1ccc(C(=O)Nc2nnc(-c3cccs3)o2)cc1 (stereo not drawn) | 0.659 µM |
| COc1cccc(N2CCN(c3ncnc4c3[nH]c3ccc(F)cc34)CC2C)c1 (stereo not drawn) | 6.85 µM |
| COc1ccc(-c2cc3nc[nH]c(=O)c3s2)cc1 | 8.36 µM |
| Nc1nc(Nc2cccc(Cl)c2)nc(NCc2ccco2)c1[N+](=O)[O-] | 7.92 µM |
| CSCc1cc(N(C)c2ccccc2)nc(-c2ccccn2)n1 | 0.136 µM |
| CCOC(=O)c1ccc(NC(=O)c2nc(S(=O)(=O)Cc3ccccc3)ncc2Cl)cc1 | 9 µM |
| CCCCc1nc(N2CCN(C(=O)c3ccco3)CC2)c(C#N)c2c1CCCC2 | 6.45 µM |
| CC1CCN(C(=O)c2ccc3c(c2)NC(=O)/C(=C/c2ccccc2)S3)CC1 | 2.66 µM |
| Cc1nn2c(COc3ccc(NC(=O)c4ccccc4)cc3)nnc2c2ccccc12 | 0.603 µM |
| OCCCCC#Cc1c(-c2ccsc2)sc2ccccc12 | 7.82 µM |
| Cc1cc(C(=O)OC(C(=O)Nc2cccc(C(F)(F)F)c2)c2ccccc2)c(C)o1 (stereo not drawn) | 10.1 µM |
| C/C(=N\NC(=O)c1cc(Br)ccc1O)c1cccc(NC(=O)c2ccccc2F)c1 | 2.87 µM |
| COc1ccc(Oc2nc(-c3ccccn3)ncc2OC)cc1 | 1.45 µM |
| CN1C(=O)/C(=C\c2ccccc2F)Sc2ccc(C(=O)NC3CCN(Cc4ccccc4)CC3)cc21 | 6.22 µM |
| CCCn1nnnc1NC(=O)c1ccc2ccccc2c1 | 1.01 µM |
| CCCCC1CCC(c2nc(-c3ccccn3)no2)CC1 (stereo not drawn) | 8.61 µM |
| COc1cc(OC)c(NC(=O)c2sc3ncn(CC(=O)N4CCN(c5ccccn5)CC4)c(=O)c3c2C)cc1Cl | 6.52 µM |
| [O-][n+]1c2ccccc2[n+]([O-])c2cc(O)ccc21 | 5.86 µM |
| CCOc1ccc(NC(=S)N=Nc2c(O)[nH]c3ccccc23)cc1 | 0.525 µM |
| O=C(NC(NC(=S)Nc1c(Cl)cc(Cl)cc1Cl)C(Cl)(Cl)Cl)OCc1ccccc1 (stereo not drawn) | 0.978 µM |
| CNC(CC(C)C)C(=O)NC1C(=O)NC(CC(N)=O)C(=O)NC2C(=O)NC3C(=O)NC(C(=O)NC(C(=O)O)c4cc(O)cc(O)c4-c4cc3ccc4O)C(O)c3ccc(c(Cl)c3)Oc3cc2cc(c3OC2OC(CO)C(O)C(O)C2OC2CC(C)(N)C(O)C(C)O2)Oc2ccc(cc2Cl)C1O (stereo not drawn) | 0.169 µM |

| Structure (SMILES) | EC50 |
| --- | --- |
| c1ccc(-c2nc(N3CCCCCC3)c3ccccc3n2)nc1 | 1.43 µM |
| CCOc1ccc(Cl)cc1S(=O)(=O)n1cnc2cc(C)c(C)cc21 | 4.77 µM |
| COc1cccc(/C=C/C(=C2/C(=O)N(c3ccccc3)N=C2C)c2ccc(Br)cc2)c1OC | > 15 µM (inactive) |
| O=C(CSc1nc2nc(-c3cccs3)cc(C(F)(F)F)c2c(=O)[nH]1)Nc1ccc(F)c(F)c1 | 1.16 µM |
| O=C(NC(=S)N(CCCCO)C1CCCCC1)c1sc2ccccc2c1Cl | 0.527 µM |
| O=c1c([N+](=O)[O-])cccn1Cc1ccc(F)cc1Cl | 3.38 µM |
| CCCCCCCCCCCCN1C(=O)CSC1c1cccnc1 (stereo not drawn) | 5.91 µM |
| COc1ccc(Br)cc1/C=C/C(=O)NC(=S)Nc1ccc(Cl)c(C(=O)O)c1 | 10.5 µM |
| COc1ccccc1-c1cc(=O)c2c(O)ccc([N+](=O)[O-])c2o1 | 2.56 µM |
| O=C(Nc1ccc(Cl)c(Cl)c1)Nc1ccon1 | 14.5 µM |
| C=CCn1c(O)c(C(CC)=Nc2ccc(N(C)C)cc2)c(=O)[nH]c1=O | 3.05 µM |
| Cc1cccc(NC(c2ccc(C)s2)c2ccc3ccc(C)nc3c2O)n1 (stereo not drawn) | 3.9 µM |
| CC1CCN(Cc2c(C(=O)N/N=C/c3cc(Cl)ccc3O)nnn2-c2nonc2N)CC1 | 2.67 µM |
| CCc1nnc(NC(=O)c2ccc(S(=O)(=O)N(C)c3ccccc3)cc2)o1 | 4.71 µM |
| Clc1ccc(C2=CSC3=Nc4cccc5cccc(c45)N23)cc1 | 7.43 µM |
| COc1ccc(Cc2n[nH]c(=S)n2NC(=O)Nc2ccc(Cl)c(Cl)c2)cc1 | 4.08 µM |
| CC(C)Cn1c(O)c(N=NC(=O)c2cccc(S(=O)(=O)N3CCCCC3)c2)c2ccccc21 | 6.04 µM |
| O=c1cc(-c2ccc([N+](=O)[O-])cc2)nc2cc(-c3ccc(F)cc3)[nH]n12 | 3.48 µM |
| Cc1ccc2c(c1)C(=O)CC1(CCC(C(C)(C)C)CC1)O2 (stereo not drawn) | 3.01 µM |
| CCCc1ccc(OCC(=O)NNC(=S)NC(=O)c2ccco2)cc1 | < 0.06 µM |
